Test results from US12187723B2 (BRISTOL-MYERS SQUIBB COMPANY, priority 2019, dated 2025).

Columns and labels:
human TLR7 = target: T1, human TLR7 (Homo sapiens, UniProt Q9NYK1); assay: TLR7 inhibition reporter assay (HEK-Blue SEAP); assay type: cell-based; conditions: HEK-Blue cells overexpressing human TLR7, gardiquimod 7.5 μM, 22 hour incubation
T1 construct: host or cells: HEK-Blue cells
T1 sequence (Q9NYK1 27-1049): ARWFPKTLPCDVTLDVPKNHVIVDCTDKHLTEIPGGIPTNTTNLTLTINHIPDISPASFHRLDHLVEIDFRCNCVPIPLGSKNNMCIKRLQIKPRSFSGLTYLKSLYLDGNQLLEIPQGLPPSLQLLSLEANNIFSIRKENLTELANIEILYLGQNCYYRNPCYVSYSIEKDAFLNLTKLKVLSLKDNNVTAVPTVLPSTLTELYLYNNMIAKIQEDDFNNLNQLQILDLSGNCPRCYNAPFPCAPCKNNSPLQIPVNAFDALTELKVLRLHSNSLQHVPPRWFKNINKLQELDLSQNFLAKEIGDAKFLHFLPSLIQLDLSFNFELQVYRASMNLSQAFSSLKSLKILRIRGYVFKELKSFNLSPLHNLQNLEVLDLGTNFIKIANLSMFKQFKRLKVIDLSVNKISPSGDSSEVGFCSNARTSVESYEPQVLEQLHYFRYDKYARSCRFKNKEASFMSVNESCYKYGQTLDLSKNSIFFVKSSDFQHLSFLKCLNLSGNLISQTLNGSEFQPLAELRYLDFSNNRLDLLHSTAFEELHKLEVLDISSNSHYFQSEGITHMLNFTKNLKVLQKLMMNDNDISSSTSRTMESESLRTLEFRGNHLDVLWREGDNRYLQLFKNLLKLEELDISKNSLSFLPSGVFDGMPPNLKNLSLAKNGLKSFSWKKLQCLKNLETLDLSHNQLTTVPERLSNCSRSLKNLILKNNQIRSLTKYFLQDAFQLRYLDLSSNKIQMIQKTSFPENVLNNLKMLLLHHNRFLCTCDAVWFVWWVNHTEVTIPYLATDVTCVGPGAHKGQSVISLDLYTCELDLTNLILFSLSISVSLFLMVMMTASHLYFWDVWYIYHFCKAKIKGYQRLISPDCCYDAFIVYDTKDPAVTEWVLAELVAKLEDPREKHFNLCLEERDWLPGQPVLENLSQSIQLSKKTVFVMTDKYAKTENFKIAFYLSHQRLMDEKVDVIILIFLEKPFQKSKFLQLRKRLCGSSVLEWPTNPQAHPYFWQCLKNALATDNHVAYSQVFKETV
Procedure, shortened: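 In this cell reporter format, test compounds at 0.05 nM-50 μM final incubate 22 h with seeded cells (TLR7 15000, TLR8 20,000 per well). SEAP read-out by HEK-Blue Detection medium yields % inhibition relative to agonist/DMSO and known-inhibitor wells.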

human TLR9 = target: T2, human TLR9 (Homo sapiens, UniProt Q9NR96); assay: TLR9 inhibition reporter assay (HEK-Blue SEAP); assay type: cell-based; conditions: HEK-Blue cells overexpressing human TLR9, ODN2006 5 nM, 22 hour incubation
T2 construct: host or cells: HEK-Blue cells
T2 sequence (Q9NR96 26-1032): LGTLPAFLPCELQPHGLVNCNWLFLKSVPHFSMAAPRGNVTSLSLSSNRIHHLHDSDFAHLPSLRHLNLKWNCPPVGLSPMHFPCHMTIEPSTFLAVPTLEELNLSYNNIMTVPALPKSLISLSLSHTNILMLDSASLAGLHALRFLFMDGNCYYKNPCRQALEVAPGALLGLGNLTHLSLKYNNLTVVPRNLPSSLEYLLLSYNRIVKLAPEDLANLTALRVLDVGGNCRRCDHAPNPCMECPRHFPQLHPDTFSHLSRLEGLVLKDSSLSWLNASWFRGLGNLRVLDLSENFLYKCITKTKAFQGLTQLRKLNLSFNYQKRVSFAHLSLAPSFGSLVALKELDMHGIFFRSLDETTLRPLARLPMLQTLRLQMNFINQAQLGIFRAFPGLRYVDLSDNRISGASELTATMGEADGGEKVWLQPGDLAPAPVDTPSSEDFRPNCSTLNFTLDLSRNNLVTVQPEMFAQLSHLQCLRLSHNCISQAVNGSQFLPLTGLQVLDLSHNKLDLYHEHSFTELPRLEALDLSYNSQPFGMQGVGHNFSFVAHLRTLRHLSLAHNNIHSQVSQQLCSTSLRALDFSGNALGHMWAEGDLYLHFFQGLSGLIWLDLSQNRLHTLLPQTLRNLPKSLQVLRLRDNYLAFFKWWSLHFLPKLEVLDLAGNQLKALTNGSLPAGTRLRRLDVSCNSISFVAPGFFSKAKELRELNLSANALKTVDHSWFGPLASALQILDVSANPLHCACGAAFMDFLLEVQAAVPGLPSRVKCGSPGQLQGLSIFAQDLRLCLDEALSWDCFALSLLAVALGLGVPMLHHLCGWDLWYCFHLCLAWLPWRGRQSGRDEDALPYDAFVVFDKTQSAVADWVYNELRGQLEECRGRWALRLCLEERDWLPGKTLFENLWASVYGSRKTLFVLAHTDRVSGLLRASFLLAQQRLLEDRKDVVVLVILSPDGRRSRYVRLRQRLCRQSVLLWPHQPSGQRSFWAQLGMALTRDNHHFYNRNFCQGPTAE
Procedure, shortened: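 Dose–response from 0.05 nM to 50 μM was run in HEK-Blue human TLR7, TLR8 and TLR9 reporter cells. After 30 min at room temperature with compound, ligand was added (TLR7 gardiquimod 7.5 μM; TLR8 R848 15.9 μM; TLR9 ODN2006 5 nM) and SEAP measured next day, at 22 h.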

SMILES	IC50 (human TLR7) [nM]	IC50 (human TLR9) [µM]
CCC(CC)CN1CCC[C@H](n2c(=O)[nH]c3cc(-c4cc(OC)c5ncnn5c4)c(C(C)C)cc32)C1 [Example 130, (S)-1-(1-(2-ethylbutyl)piperidin-3-yl)-6-isopropyl-5-(8-methoxy-[1,2,4]triazolo[1,5-a]pyridin-6-yl)-1,3-dihydro-2H-benzo[d]imidazol-2-one]	31.1	9.61
CCN1CCC(n2c(=O)[nH]c3cc(-c4cc(OC)c5ncnn5c4)c(C)cc32)CC1 [Example 9, 1-(1-ethylpiperidin-4-yl)-5-(8-methoxy-[1,2,4]triazolo[1,5-a]pyridin-6-yl)-6-methyl-1,3-dihydro-2H-benzo[d]imidazol-2-one]	70.8	0.638
